Reference: patent US8871765B2, “Substituted 4-(4-fluoro-3-(piperazine-1-carbonyl)benzyl)phthalazin-1(2H)-one derivatives as poly (ADP-ribose) polymerase-1 inhibitors” (Cadila Healthcare Limited, priority 2010, dated 2014)

Legend:
MCF-7 cell line = test: Potentiation of cell killing activity of Methyl Methane Sulphonate (MMS) in MCF-7 cells, MTT assay; assay type: cell-based; settings: compound at 100 nM, cell survival without/with alkylating agent MMS
Protocol: Potentiation of cell killing activity of Methyl Methane Sulphonate (MMS) by selected compounds according to present invention was evaluated in MCF-7 cell line obtained from National Centre for Cell Science, Pune, by using MTT assay according to general protocol described in Methods in Molecular Biology, Volume-43, In vitro Toxicity Testing Protocol, Chapter-6, page: 137-149. Compounds were tested for PARP 1 activity based on percent cell survival of MCF-7 cells with alkylating agent MMS.

PARP-1 = target: T1, PARP-1 (Homo sapiens, UniProt P09874); test: PARP-1 inhibitory activity, HT universal colorimetric PARP assay kit (Trevigen); assay type: biochemical; settings: HT universal colorimetric PARP assay kit; read-out: PARP-1 activity in vitro IC50 nM)
T1 construct: purchased Trevigen
Protocol: The compounds were tested for PARP-1 inhibitory activity by using HT universal colorimetric PARP assay kit obtained from Trevigen, following manufacturer's protocol.

T1 sequence (P09874 whole entry): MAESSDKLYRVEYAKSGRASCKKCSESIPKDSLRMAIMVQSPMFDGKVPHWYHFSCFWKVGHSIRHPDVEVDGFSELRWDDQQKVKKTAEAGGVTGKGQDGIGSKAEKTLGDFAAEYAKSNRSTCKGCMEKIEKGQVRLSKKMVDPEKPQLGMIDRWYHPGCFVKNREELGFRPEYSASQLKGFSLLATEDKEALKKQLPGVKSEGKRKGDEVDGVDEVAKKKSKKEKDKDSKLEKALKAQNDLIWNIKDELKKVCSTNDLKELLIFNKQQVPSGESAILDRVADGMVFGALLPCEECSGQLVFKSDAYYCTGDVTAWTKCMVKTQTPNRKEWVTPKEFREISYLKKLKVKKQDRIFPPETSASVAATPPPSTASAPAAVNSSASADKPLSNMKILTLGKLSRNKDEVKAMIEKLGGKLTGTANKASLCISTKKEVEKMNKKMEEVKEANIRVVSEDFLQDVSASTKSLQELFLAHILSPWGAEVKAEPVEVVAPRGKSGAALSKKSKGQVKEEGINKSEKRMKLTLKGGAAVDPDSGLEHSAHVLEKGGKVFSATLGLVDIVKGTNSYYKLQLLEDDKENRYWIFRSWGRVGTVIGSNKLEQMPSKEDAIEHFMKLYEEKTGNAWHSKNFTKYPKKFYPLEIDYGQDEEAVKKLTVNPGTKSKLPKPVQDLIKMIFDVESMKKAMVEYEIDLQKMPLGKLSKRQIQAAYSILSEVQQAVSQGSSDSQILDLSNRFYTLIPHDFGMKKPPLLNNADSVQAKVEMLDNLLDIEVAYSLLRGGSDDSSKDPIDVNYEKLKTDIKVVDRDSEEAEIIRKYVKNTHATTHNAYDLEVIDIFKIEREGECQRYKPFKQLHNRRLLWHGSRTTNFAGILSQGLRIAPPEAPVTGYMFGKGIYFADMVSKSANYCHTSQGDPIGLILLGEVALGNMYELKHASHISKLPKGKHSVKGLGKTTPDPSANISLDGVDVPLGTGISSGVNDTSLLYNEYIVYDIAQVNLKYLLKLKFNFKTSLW

| Compound | Survival affected by drug [(−MMS/+MMS)] at 100 nM (MCF-7 cell line) | IC50 (PARP-1) |
| --- | --- | --- |
| O=C(c1cc(Cc2n[nH]c(=O)c3ccccc23)ccc1F)N1CCN(C(=O)C2CC2)CC1 [AZD, reference compound] | 2.19 | – |
| COc1ccc(OC(C)(C)C(=O)N2CCN(C(=O)c3cc(Cc4n[nH]c(=O)c5ccccc45)ccc3F)CC2)cc1 [Example 3, 4-(4-fluoro-3-(4-(2-methyl-2-(4-methoxyphenoxy)propanoyl)piperazine-1-carbonyl)benzyl)phthalazin-1(2H)-one] | 2.07 | 11 nM |
| CC(C)(Oc1ccccn1)C(=O)N1CCN(C(=O)c2cc(Cc3n[nH]c(=O)c4ccccc34)ccc2F)CC1 [Example 17, 4-(4-fluoro-3-(4-(2-methyl-2-(pyridin-2-yloxy)propanoyl)piperazine-1-carbonyl)benzyl)phthalazin-1(2H)-one] | 1.93 | 13.9 nM |
| CC(C)(Oc1ccccc1[N+](=O)[O-])C(=O)N1CCN(C(=O)c2cc(Cc3n[nH]c(=O)c4ccccc34)ccc2F)CC1 [Example 19, 4-(4-fluoro-3-(4-(2-methyl-2-(2-nitrophenoxy)propanoyl)piperazine-1-carbonyl)benzyl)phthalazin-1(2H)-one] | 2.19 | 12.4 nM |
| CC(C)(Oc1ccc(Br)cc1Cl)C(=O)N1CCN(C(=O)c2cc(Cc3n[nH]c(=O)c4ccccc34)ccc2F)CC1 [Example 20, 4-(3-(4-(2-(4-bromo-2-chlorophenoxy)-2-methylpropanoyl)piperazine-1-carbonyl)-4-fluorobenzyl)phthalazin-1(2H)-one] | 2.15 | 14.3 nM |
| CC(C)(Oc1cccc(C(F)(F)F)c1)C(=O)N1CCN(C(=O)c2cc(Cc3n[nH]c(=O)c4ccccc34)ccc2F)CC1 [Example 21, 4-(4-fluoro-3-(4-(2-methyl-2-(3-(trifluoromethyl)phenoxy)propanoyl)piperazine-1-carbonyl)benzyl)phthalazin-1(2H)-one] | 1.62 | 12 nM |
| CC(C)(Sc1ccc(F)cc1)C(=O)N1CCN(C(=O)c2cc(Cc3n[nH]c(=O)c4ccccc34)ccc2F)CC1 [Example 22, 4-(4-fluoro-3-(4-(2-((4-fluorophenyl)thio)-2-methylpropanoyl)piperazine-1-carbonyl)benzyl)phthalazin-1(2H)-one] | 2.1 | 5.3 nM |
| CC(C)(C(=O)N1CCN(C(=O)c2cc(Cc3n[nH]c(=O)c4ccccc34)ccc2F)CC1)S(=O)(=O)c1ccccc1 [Example 23, 4-(4-fluoro-3-(4-(2-methyl-2-(phenylsulfonyl)propanoyl)piperazine-1-carbonyl)benzyl)phthalazin-1(2H)-one] | 2.11 | 4.23 nM |
| CC(C)(C(=O)N1CCN(C(=O)c2cc(Cc3n[nH]c(=O)c4ccccc34)ccc2F)CC1)S(=O)(=O)c1ccc(F)cc1 [Example 24, 4-(4-fluoro-3-(4-(2-((4-fluorophenyl)sulfonyl)-2-methylpropanoyl)piperazine-1-carbonyl)benzyl)phthalazin-1(2H)-one] | 2.28 | 4.66 nM |
| CC(C)(C(=O)N1CCN(C(=O)c2cc(Cc3n[nH]c(=O)c4ccccc34)ccc2F)CC1)[S+]([O-])c1ccc(F)cc1 (stereo not drawn) [Example 25, 4-(4-fluoro-3-(4-(2-((4-fluorophenyl)sulfinyl)-2-methylpropanoyl)piperazine-1-carbonyl)benzyl)phthalazin-1(2H)-one] | 2.15 | 5.94 nM |
| CC(C)(Oc1ccc(F)cc1F)C(=O)N1CCN(C(=O)c2cc(Cc3n[nH]c(=O)c4ccccc34)ccc2F)CC1 [Example 26, 4-(3-(4-(2-(2,4-difluorophenoxy)-2-methylpropanoyl)piperazine-1-carbonyl)-4-fluorobenzyl)phthalazin-1(2H)-one] | 2.59 | 6.43 nM |
| CC(C)(Sc1ccc(F)cc1F)C(=O)N1CCN(C(=O)c2cc(Cc3n[nH]c(=O)c4ccccc34)ccc2F)CC1 [Example 27, 4-(3-(4-(2-((2,4-difluorophenyl)thio)-2-methylpropanoyl)piperazine-1-carbonyl)-4-fluorobenzyl)phthalazin-1(2H)-one] | 2.49 | 5.17 nM |
| COc1cccc(SC(C)(C)C(=O)N2CCN(C(=O)c3cc(Cc4n[nH]c(=O)c5ccccc45)ccc3F)CC2)c1 [Example 28, 4-(4-fluoro-3-(4-(2-((3-methoxyphenyl)thio)-2-methylpropanoyl)piperazine-1-carbonyl)benzyl)phthalazin-1(2H)-one] | 2.08 | 7.08 nM |
| CC(C)(Sc1ccccc1Br)C(=O)N1CCN(C(=O)c2cc(Cc3n[nH]c(=O)c4ccccc34)ccc2F)CC1 [Example 29, 4-(3-(4-(2-((2-bromophenyl)thio)-2-methylpropanoyl)piperazine-1-carbonyl)-4-fluorobenzyl)phthalazin-1(2H)-one] | 2.22 | 8.6 nM |
| CC(C)(Sc1ccc(Cl)c(Cl)c1)C(=O)N1CCN(C(=O)c2cc(Cc3n[nH]c(=O)c4ccccc34)ccc2F)CC1 [Example 30, 4-(3-(4-(2-((3,4-dichlorophenyl)thio)-2-methylpropanoyl)piperazine-1-carbonyl)-4-fluorobenzyl)phthalazin-1(2H)-one] | 2.22 | 9.38 nM |
| CC(C)(Sc1ccc(Cl)cc1Cl)C(=O)N1CCN(C(=O)c2cc(Cc3n[nH]c(=O)c4ccccc34)ccc2F)CC1 [Example 31, 4-(3-(4-(2-((2,4-dichlorophenyl)thio)-2-methylpropanoyl)piperazine-1-carbonyl)-4-fluorobenzyl)phthalazin-1(2H)-one] | 1.94 | 3.05 nM |
| CC(C)(Sc1cccc(F)c1)C(=O)N1CCN(C(=O)c2cc(Cc3n[nH]c(=O)c4ccccc34)ccc2F)CC1 [Example 32, 4-(4-fluoro-3-(4-(2-((3-fluorophenyl)thio)-2-methylpropanoyl)piperazine-1-carbonyl)benzyl)phthalazin-1(2H)-one] | 2.08 | 5.7 nM |
| CC(C)(Sc1cc(Cl)ccc1Cl)C(=O)N1CCN(C(=O)c2cc(Cc3n[nH]c(=O)c4ccccc34)ccc2F)CC1 [Example 33, 4-(3-(4-(2-((2,5-dichlorophenyl)thio)-2-methylpropanoyl)piperazine-1-carbonyl)-4-fluorobenzyl)phthalazin-1(2H)-one] | 1.98 | 7.9 nM |
| CC(C)(Nc1ccc(F)cc1)C(=O)N1CCN(C(=O)c2cc(Cc3n[nH]c(=O)c4ccccc34)ccc2F)CC1 [Example 34, 4-(4-fluoro-3-(4-(2-((4-fluorophenyl)amino)-2-methylpropanoyl)piperazine-1-carbonyl)-benzyl)phthalazin-1(2H)-one] | 2.85 | 6.68 nM |
| CC(C)(Nc1ccccc1)C(=O)N1CCN(C(=O)c2cc(Cc3n[nH]c(=O)c4ccccc34)ccc2F)CC1 [Example 35, 4-(4-fluoro-3-(4-(2-methyl-2-(phenylamino)-propanoyl)piperazine-1-carbonyl)benzyl)phthalazin-1(2H)-one] | 3.33 | 3.56 nM |
| CC(C)(SC1CCCC1)C(=O)N1CCN(C(=O)c2cc(Cc3n[nH]c(=O)c4ccccc34)ccc2F)CC1 [Example 36, 4-(3-(4-(2-(cyclopentylthio)-2-methylpropanoyl)piperazine-1-carbonyl)-4-fluorobenzyl)phthalazin-1(2H)-one] | 2.59 | 5.17 nM |
| Cc1cc(OC(C)(C)C(=O)N2CCN(C(=O)c3cc(Cc4n[nH]c(=O)c5ccccc45)ccc3F)CC2)cc(C)c1Br [Example 37, 4-(3-(4-(2-(4-bromo-3,5-dimethylphenoxy)-2-methylpropanoyl)piperazine-1-carbonyl)-4-fluorobenzyl)phthalazin-1(2H)-one] | 1.61 | 16.5 nM |
| CC(C)(Sc1ccccn1)C(=O)N1CCN(C(=O)c2cc(Cc3n[nH]c(=O)c4ccccc34)ccc2F)CC1 [Example 38, 4-(4-fluoro-3-(4-(2-methyl-2-(pyridin-2-ylthio)propanoyl)piperazine-1-carbonyl)benzyl)phthalazin-1(2H)-one] | 1.96 | 5 nM |
| CC(C)(C(=O)N1CCN(C(=O)c2cc(Cc3n[nH]c(=O)c4ccccc34)ccc2F)CC1)[S+]([O-])c1ccc(Cl)cc1Cl (stereo not drawn) [Example 39, 4-(3-(4-(2-(2,4-dichlorophenylsulfinyl)-2-methylpropanoyl)piperazine-1-carbonyl)-4-fluorobenzyl)phthalazin-1(2H)-one] | 2.29 | 9.47 nM |
| CC(C)(Sc1ccccc1)C(=O)N1CCN(C(=O)c2cc(Cc3n[nH]c(=O)c4ccccc34)ccc2F)CC1 [Example 46, 4-(4-fluoro-3-(4-(2-methyl-2-(phenylthio)propanoyl)piperazine-1-carbonyl)benzyl)phthalazin-1(2H)-one] | 2.28 | 10.6 nM |
| CC(C)(Sc1ccc(Br)cc1)C(=O)N1CCN(C(=O)c2cc(Cc3n[nH]c(=O)c4ccccc34)ccc2F)CC1 [Example 47, 4-(3-(4-(2-((4-bromophenyl)thio)-2-methylpropanoyl)piperazine-1-carbonyl)-4-fluorobenzyl)phthalazin-1(2H)-one] | 2.12 | 9.16 nM |
